The values that follow are results of earlier work, collected in patent publication US20240207248A1, “METHODS, KITS AND COMPOSITIONS FOR REDUCING CHROMOSOMAL INSTABILITY IN CANCER CELLS” (BARUCH S. BLUMBERG INSTITUTE, priority 2021, published 2024).

The subject of this series is aneuploid primary mouse embryonic fibroblasts carrying Robertsonian fusion chromosomes. The note with it: energy and proteotoxic stress-inducing compounds.

Regarding `NC(=O)c1ncn([C@@H]2O[C@H](CO)[C@@H](O)[C@H]2O)c1N` [AICAR], the “selectivity against aneuploid primary mouse embryonic fibroblasts” value is “showed selectivity”.

For the compound `C=CCNC1=C2C[C@@H](C)C[C@H](OC)[C@H](O)[C@@H](C)/C=C(\C)[C@H](OC(N)=O)[C@@H](OC)/C=C\C=C(/C)C(=O)NC(=CC1=O)C2=O` [17-AAG], the “selectivity against aneuploid primary mouse embryonic fibroblasts” value is on record as “showed selectivity”.
